1 compound from PMC6487966, “Streptococcal dTDP‐L‐rhamnose biosynthesis enzymes: functional characterization and lead compound identification” (Molecular Microbiology, 2019) can be followed below.

Common to all, as to experiment: bio-layer interferometry, dilution series on biotinylated recombinant enzyme
Assay type in all cases: binding
(In general: Biolayer interferometry detects binding as a change in optical thickness at a sensor tip.)

Experiment [1] concerns the target T1, RmlB (dTDP‐glucose‐4,6‐dehydratase) (Streptococcus pyogenes, UniProt Q9A045).
T1 construct: gene cpsFQ

Experiment [2] has as its target T2, RmlC (dTDP‐4‐keto‐6‐deoxyglucose‐3,5‐epimerase) (Streptococcus pyogenes, UniProt Q5XCG7).
T2 construct: gene rfbC

The target of experiment [3] is GacA (RmlD, dTDP‐4‐dehydrorhamnose reductase) (Streptococcus pyogenes, UniProt Q9A0G6).
Sequence of GacA (RmlD, dTDP‐4‐dehydrorhamnose reductase) (Q9A0G6 entry or part of it): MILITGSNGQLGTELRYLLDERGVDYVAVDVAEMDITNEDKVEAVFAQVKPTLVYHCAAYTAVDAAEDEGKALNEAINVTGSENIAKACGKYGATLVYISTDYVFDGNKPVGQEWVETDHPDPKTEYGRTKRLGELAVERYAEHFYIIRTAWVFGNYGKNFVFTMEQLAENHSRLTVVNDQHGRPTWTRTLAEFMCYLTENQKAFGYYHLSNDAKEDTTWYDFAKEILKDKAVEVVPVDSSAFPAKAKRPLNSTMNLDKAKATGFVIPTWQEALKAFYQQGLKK

T1 sequence (Q9A045 entry or part of it): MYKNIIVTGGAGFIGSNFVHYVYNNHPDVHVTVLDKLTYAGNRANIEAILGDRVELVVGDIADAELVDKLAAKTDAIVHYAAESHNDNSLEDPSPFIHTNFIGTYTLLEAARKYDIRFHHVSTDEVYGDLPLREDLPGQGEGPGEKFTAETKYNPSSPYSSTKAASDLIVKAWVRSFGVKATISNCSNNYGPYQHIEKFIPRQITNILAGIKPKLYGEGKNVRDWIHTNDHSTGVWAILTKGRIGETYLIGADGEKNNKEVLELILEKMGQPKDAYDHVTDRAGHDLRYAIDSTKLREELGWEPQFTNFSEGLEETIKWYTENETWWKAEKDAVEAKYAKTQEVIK
T2 sequence (Q5XCG7 whole entry): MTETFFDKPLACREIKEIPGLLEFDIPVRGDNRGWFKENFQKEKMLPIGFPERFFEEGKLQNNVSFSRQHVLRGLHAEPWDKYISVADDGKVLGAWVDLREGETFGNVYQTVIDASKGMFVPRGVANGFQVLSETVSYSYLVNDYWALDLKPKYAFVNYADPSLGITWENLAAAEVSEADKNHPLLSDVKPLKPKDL

For the compound `O=C(O)c1ccc(-c2ccc(Cl)cc2)o1` [Ri03, 5‐(4‐chlorophenyl)‐2‐furoic acid], the results for the Kd in experiment [1], in experiment [2] and in experiment [3] were 200 µM, around 3000 µM and 300 µM, respectively.

The term Kd denotes the equilibrium constant for the complex coming apart.
